How the values were obtained:
[1] = tested on: MDA-MB-231; assay: WST-1 proliferation assay, MDA-MB-231; format: cell-based, Human; conditions: MDAMB-231 cell survival, FIGS. 1A-C
Protocol: (§1) Cells were grown as subconfluent monolayer and cultured in 75 cm^2 flasks at 37° C., 5% CO2 in a humidified atmosphere, and medium was changed every two days. Only cells from passages 2-6 were used for the experiments.
(§2) All cells were detached with 3 ml of trypsin/EDTA (chelator of calcium and magnesium ions) (Lonza), incubated for 5 min at 37° C., and examined using a microscope to ensure that the cells were detached and floating. […] The supernatant was removed and the cell pellet resuspended in […] of culture medium. 50 μl of this solution were transferred in 20 μl of isotonic solution and the cells were counted by count cellular (Beckman Coulter).
(§3) The cell proliferation WST-1 assay is a colorimetric assay for the quantification of cell proliferation and viability, based on the enzymatic cleavage of the tetrazolium salt WST-1 added to the culture medium, to a water soluble colored formazan dye, detected by absorbance at 450 nm, by mitochondrial succinate-tetrazolium reductase in viable cells. An augmentation in enzyme activity will then lead to an increase in the amount of formazan dye formed, which directly correlates to the number of metabolically active cells in the culture.
(§4) After an incubation period of 72 h, at day 4, were prepared the […] medium with reagent WST-1 […] ([…]). The medium was removed from the 96 microplate and 200 μl of solution WST-1/medium were added for each well. The cells were incubated at 37° C. in a humidified atmosphere of 5% CO2 for 1 h 30 and the absorbance at 450-655 nm was measured by Microplate Manager 5.2 (Bio-Rad).

[2] = tested on: HUVEC cells; assay: WST-1 proliferation assay, HUVEC; format: cell-based; conditions: FIG. 1 cell survival
Protocol: as §1, §2, §3, §4

[3] = target: T1, NRP-1 (Homo sapiens, UniProt O14786); assay: ELISA inhibition of VEGF binding to NRP-1; conditions: compounds at 10 μM
T1 construct: purchased R&D Systems, UK 3870-N1-025
T1 sequence (O14786 22-644 isoform O14786-2 limits assumed): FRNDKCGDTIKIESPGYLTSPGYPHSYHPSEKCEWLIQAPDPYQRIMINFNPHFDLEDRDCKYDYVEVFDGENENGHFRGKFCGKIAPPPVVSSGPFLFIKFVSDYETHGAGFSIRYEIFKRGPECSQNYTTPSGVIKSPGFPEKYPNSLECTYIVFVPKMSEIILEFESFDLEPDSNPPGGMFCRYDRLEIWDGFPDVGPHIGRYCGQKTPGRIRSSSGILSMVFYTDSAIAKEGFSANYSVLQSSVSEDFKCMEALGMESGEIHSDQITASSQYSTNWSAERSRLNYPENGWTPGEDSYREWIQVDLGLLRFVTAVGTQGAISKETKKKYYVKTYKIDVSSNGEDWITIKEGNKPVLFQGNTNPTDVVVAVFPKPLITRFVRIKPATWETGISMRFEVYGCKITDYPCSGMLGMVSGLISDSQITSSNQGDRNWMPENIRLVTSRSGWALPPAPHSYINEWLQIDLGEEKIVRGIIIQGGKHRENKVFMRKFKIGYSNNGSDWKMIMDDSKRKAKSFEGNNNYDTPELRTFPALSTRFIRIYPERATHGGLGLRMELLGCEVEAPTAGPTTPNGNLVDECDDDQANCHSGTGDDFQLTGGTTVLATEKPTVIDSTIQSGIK
Protocol: Elisa test was performed covering a 96-well microplate (BD Biosciences, France, cat no 353046) surface with 100 μl of 1×PBS, pH 7.4 with Ca^2+ and Mg^2+, (Lonza, France, cat no 17-513F/12) solution containing 0.2 μg/ml of VEGF-R1 (R&D Systems, UK, cat no 321-FL-050/CF) or 2 μg/ml of NRP-1 (R&D Systems, UK, cat no 3870-N1-025) or NRP-2 (R&D Systems, UK, cat no […]). The plate was sealed and incubated overnight at 4° C. After 3 washes with 200 μl of 1×PBS 0.5% (v/v) Tween 20 (Sigma, France, cat no 34078) (Buffer A), the plate was blocked by adding 200 μl of 1×PBS with 0.5% (w/v) BSA (Eurobio, France, cat no GAUBSA01-65) and agitated at 37° C. for 2 h. After washing five times with Buffer A, 50 μl/well of the compounds of the invention at 10 μM were added for the specific signal and 50 μl/well for the non-specific and max binding signal and incubated at 37° C. for 1 hour, shacking. 50 μl of btVEGF (R&D Systems, UK, cat no NFVEO) at […] for NRP-1/4 μg/ml Heparin (Sigma, USA, cat no H3393-10KU), 300 μg/ml for NRP-2 and 100 μg/ml for VEGF-R1 solution was added to each well; the plate was sealed and incubated at 37° C. for 2 h, shacking. The last incubation was carried out, after five washes with Buffer A, adding 100 μl/well Streptavidin-Horseradish Peroxidase (Amersham, Switzerland, cat no RPN4401) diluted 1:8000 with buffer A. After 1 h shacking at 37° C. under obscurity, the plate was washed 5 times with buffer A and 100 μl of SuperSignal west picochemiluminescent substrate (Interchim, USA cat no 34078) were added. Luminescence was quantified with an EnVision™ 2101 Multilabel reader (Perkin Elmer, USA) and the data analyzed by Wallac Envision manager software. Signal is given as relative light units (RLU). Non-specific binding is defined as the signal measured in the absence of receptor coated on the microplate. The specific binding was calculated as the difference between total binding and non-specific binding. The percentage of inhibition was calculated as following: […]

[4] = tested on: MDAMB-231 cells; assay: Adhesion test (crystal violet), MDA-MB-231; format: cell-based, Human; conditions: MDAMB-231, FIGS. 1A-C
Protocol: The crystal violet (hexamethyl pararosaniline chloride) is used as biologic colorant. It enters in the living cells, allowing the visualisation of the dark purple adherent living cells on the bottom of the plate.
After an incubation period of 72 h, the adherent cells were fixed with […] paraformaldehyde
3% for 15 min at room temperature. The medium and non-adherent cells were removed, and the cells were washed extensively with […] PBS (+Ca^2+ and +Mg^2+) (Lonza) and then stained with 50 μl of crystal violet 0.04% for 30 min at room temperature. The cells were washed gently 3 times with 100 μl PBS and were permeabilised with 100 μl triton 2% for 15 min. The microplate was stirred to obtain a homogenous solution and absorbance was quantified at 580 nm by Microplate Manager 5.2.
The percentage of inhibition is calculated as follow: % inhibition=100−[(DOsample/DOcontrol)*100].

O=C(NC(=S)Nc1cccc(-c2nc3ccccc3[nH]2)c1)c1ccc2c(c1)OCO2 [Compound 3, N-[3-(1H-benzimidazol-2-yl)phenyl]-N′-(1,3-benzodioxol-5-ylcarbonyl)thiourea]
cytotoxicity for cancer cells in vitro [1]: cytotoxic | cytotoxicity for endothelial cell lines (HUVEC cells) in culture [2]: cytotoxic | inhibition at 10 µM [3]: 46 ± 3% | inhibition of adhesion of cancer cells in culture [4]: inhibited the adhesion

Reference: patent US20130041005A1, “PHARMACEUTICAL COMPOSITIONS COMPRISING NEUROPILIN INHIBITORS, AND THEIR USE FOR THE PREVENTION AND/OR TREATMENT OF ANGIOGENIC DISORDERS AND CANCERS” (TRAGEX PHARMA, priority 2011, published 2013)
